From PMC8826726, “Selective Toxicity of Secondary Metabolites from the Entomopathogenic Bacterium Photorhabdus luminescens sonorensis against Selected Plant Parasitic Nematodes of the Tylenchina Suborder” (Microbiology Spectrum, 2022)
Values after ≈ are worked out from the molar mass of the structure shown.

How the values were obtained:
[1] = system: HFF cells (human foreskin cells); test: MTT cytotoxicity assay; type: cell-based; conditions: tested at 50, 100, 200 μM, data not shown
Protocol: (§1) The non-cancerous HFF cells (human foreskin cells) and three human cancer cell lines, NCI-H460 (non-small cell lung cancer), SF-268 (central nervous system glioma), and MCF-7 (breast cancer) were used to evaluate the in vitro cytotoxicity of the isolated Photorhabdus SMs. The MTT (3-(4,5-dimethylthiazol-2-yl)-2,5-diphenyltetrazolium bromide) colorimetric method ([54]) was used with doxorubicin as the positive control, and DMSO as the negative control. Photorhabdus SMs were tested at 50, 100, and 200 μM concentrations, and the assays were repeated three times.

[2] = system: NCI-H460 (non-small cell lung cancer); test: MTT cytotoxicity assay; type: cell-based, human; conditions: tested at 50, 100, 200 μM, data not shown
Protocol: as §1

[3] = system: MCF-7 (breast cancer); test: MTT cytotoxicity assay; type: cell-based, human; conditions: tested at 50, 100, 200 μM, data not shown
Protocol: as §1

[4] = system: SF-268 (central nervous system glioma); test: MTT cytotoxicity assay; type: cell-based, human; conditions: tested at 50, 100, 200 μM, data not shown
Protocol: as §1

[5] = system: Meloidogyne incognita J2 juveniles; test: microbe, parasite or virus in culture; conditions: for LC10 / LC25 / LC90 / LC50: mortality
Excerpt: (§2) Only soil inhabiting (free-living or infective) stages of target and non-target nematode species were considered in the present study. All nematode cultures (except T. semipenetrans) were maintained in the Stock laboratory (University of Arizona). M. incognita was reared in planta using susceptible tomato plants (cv. Roma VF; seedlings with five or six true leaves; courtesy of Dr. J. Brown, University of Arizona). Eggs of M. incognita were extracted from infected tomato plant roots, and J2 were collected after hatching, following the procedures of Atamian et al. ([50]). T. semipenetrans was isolated from infested lemon orchards at the Yuma Agricultural Center, University of Arizona (Yuma, AZ, USA). Eggs of T. semipenetrans were extracted from infected lemon tree roots using the procedures of El-Borai et al. ([51]), and J2 were collected using the same procedure as that described for M. incognita.
(§3) Twelve-well tissue culture plates were used as the experimental arena. For each of the tested nematode species, an inoculum of 100 nematodes, suspended in 20 μL distilled water, was added to each well. […] For PPA (Enamine) and indole (Alfa Aesar), 13 incremental concentrations were tested ranging from 10 to 400 μg/mL in 1 mL of distilled water (DMSO ≤ 1%; vol/vol). […] Distilled water with 1% DMSO was used as the negative control. To measure the combined nematicidal effects of the three SMs, equal concentrations of two or three SMs were mixed in 1:1 or 1:1:1 mixture. For example, a 20 μg/mL solution of a two-SM mixture contained 20 μg from metabolite A and 20 μg metabolite B, dissolved in 1 mL distilled water. Individual or combined SMs from 10 μg/mL to 200 μg/mL (in 20 μg/ml increments) were prepared in distilled water (DMSO ≤ 1%; vol/vol) and used for the bioassays.
(§4) The well plates were covered with their lids and incubated at 25°C in the dark. For the targeted nematode species, nematicidal activity was recorded at 24 h, 48 h, and 72 h after initial exposure to the individual SMs. For the non-target species, data were only recorded at 24 h after initial exposure to the individual SMs. For SM mixtures, mortality was recorded 24 h after initial exposure of the targeted nematode species. Nematodes were probed with a needle to assess if they were alive, dead, or paralyzed. […] Those nematodes that resumed activity upon probing were considered to suffer from temporary paralysis (impaired motility). Paralyzed nematodes were rinsed at least three times in distilled water and held for an additional 24 h to check for their recovery from temporarily paralysis. […] Experiments were repeated at least three times per treatment for each concentration tested.
(§5) For the toxicity data visualization, the relationship between percent mortality or temporary paralysis and metabolite concentration were described by a sigmoidal curve, which was fitted by the logistical function using the statistical software package SigmaPlot for Windows, version 14.0 (Systat Software Inc.). […] Concentration-response data of single metabolites or SM mixtures were pooled for each concentration and subjected to probit regression analysis using the Polo Plus program (LeOra Software). The LC or EC values, along with the corresponding 95% confidence intervals, were estimated for each single SM or SM mixture at each exposure time, depending on the experimental setting.

[6] = system: Tylenchulus semipenetrans J2 juveniles; test: microbe, parasite or virus in culture; conditions: mortality
Excerpt: as §2, §3, §4, §5

[7] = system: non-target nematodes versus targeted PPNs; test: Selectivity index, non-target nematodes over targeted PPNs; conditions: 24 h LC50
Protocol: The selectivity index of a given SM was calculated by dividing the averages of the LC50 or EC50 values obtained against each of the selected non-target nematodes by the LC50 or the EC50 values observed for each of the targeted PPN tested.

[8] = In vitro nematicidal assay, values summarised over the non-target nematodes; type: cell-based; conditions: non-target nematodes in 12-well tissue culture plates; 24 h exposure; species for which an LC50 was established; read-out: LC50 values, range over non-target nematodes
[9] = in vitro
Excerpt: The non-target species, C. elegans wild-type strain N2 Bristol (courtesy of Dr. G.L. Sutphin, University of Arizona) and Rhabditis blumi DF5010 (Caenorhabditis Genetics Center, University of MN, USA) were maintained in vitro in nematode growth medium (NGM) agar plates seeded with Escherichia coli (Migula) Castellani and Chalmers, strain OP-50, as described previously ([52]). Mixed juveniles and hermaphrodites (5 to 6 days old) were collected from the culture plates prior to the bioassays. Infective third-stage juveniles (IJs) of three non-target entomopathogenic nematode species (H. sonorensis Caborca strain, H. bacteriophora TT01 strain, and Steinernema carpocapsae All strain) were also maintained by rearing them in vivo using wax moth larvae (Galleria mellonella) as the host, according to procedures described previously ([53]), and collected for bioassays within 2 to 4 days of their emergence from nematode-infected cadavers. Nematode population density (number of nematodes per ml) was standardized prior to setting up well-plate bioassays, by adjusting each nematode suspension to a concentration of 100 nematodes in 20 μL of distilled water.
as §3, §4, §5

[10] = system: Meloidogyne incognita; conditions: cited from earlier work
[11] = system: Caenorhabditis elegans; conditions: cited from earlier work

SMILES | LC10 ([5]; 24 h exposure) | LC25 ([5]; 24 h exposure) | LC90 ([5]; 24 h exposure) | LC10 ([5]; 48 h exposure) | LC25 ([5]; 48 h exposure) | LC90 ([5]; 48 h exposure) | LC25 ([5]; 72 h exposure) | LC90 ([5]; 72 h exposure) | LC10 ([6]; 24 h exposure) | LC25 ([6]; 24 h exposure) | LC90 ([6]; 24 h exposure) | LC10 ([6]; 48 h exposure) | LC25 ([6]; 48 h exposure) | LC90 ([6]; 48 h exposure) | LC25 ([6]; 72 h exposure) | LC90 ([6]; 72 h exposure) | other results
O=C(O)/C=C/c1ccccc1 [t-CA, trans-cinnamic acid] | 42.7 (25.6, 52.2) μg/mL | 53.0 (38.0, 61.6) μg/mL | 106.0 (89.6, 159.0) μg/mL | 37.3 (19.1, 47.2) μg/mL | 45.7 (29.0, 55.1) μg/mL | 87.9 (73.0, 137.0) μg/mL | 45.2 (37.7, 50.4) μg/mL | 69.7 (62.6, 82.9) μg/mL | 53.1 (41.2, 61.2) μg/mL | 62.8 (52.2, 70.0) μg/mL | 108.0 (100.0, 121.0) μg/mL | 51.5 (39.7, 59.1) μg/mL | 60.0 (49.6, 66.6) μg/mL | 98.0 (90.7, 110.0) μg/mL | 54.9 (44.4, 61.8) μg/mL | 95.8 (88.2, 108.0) μg/mL | In vitro cytotoxicity: none even at the highest concentration tested [1]: > 200 µM; In vitro cytotoxicity: none even at the highest concentration tested [2]: > 200 µM; In vitro cytotoxicity: none even at the highest concentration tested [3]: > 200 µM; In vitro cytotoxicity: none even at the highest concentration tested [4]: > 200 µM; Reduction of the LC90 at 72 h versus 24 h ([5]; M. incognita): 34%
O=C(O)CC/C=C/c1ccccc1 [PPA, (4E)-5-phenylpent-4-enoic acid] | 29.4 (22.1, 34.6) μg/mL | 35.8 (29.0, 40.5) μg/mL | 66.9 (61.4, 75.5) μg/mL | 27.6 (19.0, 33.3) μg/mL | 33.6 (25.7, 39.0) μg/mL | 63.9 (57.2, 75.9) μg/mL | 30.7 (22.0, 36.6) μg/mL | 61.0 (52.7, 76.5) μg/mL | 50.8 (27.0, 60.5) μg/mL | 57.6 (36.6, 66.0) μg/mL | 86.4 (78.2, 109.0) μg/mL | 42.7 (31.2, 50.0) μg/mL | 50.1 (39.8, 56.6) μg/mL | 83.7 (76.3, 96.6) μg/mL | 28.0 (8.0, 42.7) μg/mL | 92.4 (60.6, 312.0) μg/mL | Selectivity index (LC50 for the non-target nematodes over those for the targeted PPNs) [7]: 6 to 8; LC50 at 24 h [8]: 278 to 421 µg/mL (≈ 1580 to 2390 µM); LC50 at 24 h ([9]; All, Steinernema carpocapsae): > 400 µg/mL; LC50 at 24 h ([9]; Caborca, Heterorhabditis sonorensis): > 400 µg/mL; LC50 at 24 h ([9]; DF5010, Rhabditis blumi): 346 µg/mL (≈ 1960 µM); LC50 at 24 h ([9]; N2 Bristol, Caenorhabditis elegans): 278 µg/mL (≈ 1580 µM); LC50 at 24 h ([9]; TT01, Heterorhabditis bacteriophora): > 400 µg/mL; Reduction of LC50 for M. incognita versus T. semipenetrans ([5]; 24 h postexposure): 33%; LC50 ([5]; Meloidogyne incognita, 24 h, 24 h exposure): 44 µg/mL (≈ 250 µM); LC50 ([5]; Meloidogyne incognita, 48 h, 48 h exposure): 42 µg/mL (≈ 238 µM); LC50 ([5]; Meloidogyne incognita, 72 h, 72 h exposure): 38.9 µg/mL (≈ 221 µM); LC50 ([5]; 24 h exposure): 44.4 µg/mL (≈ 252 µM); LC10 ([5]; 72 h exposure): 24.8 (16.0, 31.0) μg/mL; LC50 ([6]; Tylenchulus semipenetrans, 24 h, 24 h exposure): 66 µg/mL (≈ 375 µM); LC50 ([6]; Tylenchulus semipenetrans, 48 h, 48 h exposure): 59.8 µg/mL (≈ 339 µM); LC50 ([6]; Tylenchulus semipenetrans, 72 h, 72 h exposure): 42.2 µg/mL (≈ 239 µM); LC50 ([6]; 24 h exposure): 66.3 µg/mL (≈ 376 µM); LC10 ([6]; 72 h exposure): 19.3 (3.06, 31.9) μg/mL
CC(C)c1c(O)cc(C=Cc2ccccc2)cc1O [3,5-dihydroxy-4-isopropylstilbene] |  |  |  |  |  |  |  |  |  |  |  |  |  |  |  |  | Nematicidal activity [10]: no activity; Toxicity to non-target bacterivorous nematode [11]: toxic at similar concentrations (up to 100 μg/ml)
